Assay results as given in PMC10231375, “HDR, the last enzyme in the MEP pathway, differently regulates isoprenoid biosynthesis in two woody plants” (Plant Physiology, 2023).

Columns and labels:
PaHDR1 = test system: T1, PaHDR1; assay: LC-MS/MS of DMADP + IDP, initial velocities, Lineweaver-Burk; assay type: biochemical, Picea abies; details: anaerobic; 1 mM methyl viologen, 3 mM sodium dithionite, MgCl2; pH 6.5; 30 °C or 35 °C
T1 construct: gene HDR1; plastid transit peptide removed (borders only in supplemental primers); E. coli BL21-AI; anaerobic glutathione column; [4Fe-4S] enzyme

PaHDR2 = test system: T2, PaHDR2; assay: as above; assay type: biochemical, Picea abies; details: anaerobic; 1 mM methyl viologen, 3 mM sodium dithionite, MgCl2; pH 6.5; 30 °C or 35 °C; text calls PaHDR1 the lower-affinity enzyme, against the printed order of Km values; Figure 3 legend
T2 construct: gene HDR2; plastid transit peptide removed (borders only in supplemental primers); E. coli BL21-AI; anaerobic glutathione column; [4Fe-4S] enzyme

- Km (PaHDR1): 15.9 µM
- Km (PaHDR2): 21.2 µM
Compound: C/C(=C\COP(=O)(O)OP(=O)(O)O)CO [HMBDP, (E)-4-hydroxy-3-methylbut-2-enyl diphosphate]
